Measured values from ChEMBL document CHEMBL3271962 (J Med Chem, 1976).

What was measured:
Rattus norvegicus = species on record: Rattus norvegicus; test: Inhibition of [3H]norepinephrine uptake at NET expressed in rat hypothalamic homogenate containing synaptosomes after 5 mins by scintillation counting analysis relative to (+)-amphetamine; format: subcellular; settings: Brain
[1] = target: Sodium-dependent dopamine transporter (Rattus norvegicus) (UniProt P23977); test: Inhibition of [3H]dopamine uptake at dopamine transporter expressed in rat striatal homogenate after 5 mins by scintillation counting analysis relative to (+)-amphetamine
Chain of Sodium-dependent dopamine transporter (Rattus norvegicus) (P23977 whole entry): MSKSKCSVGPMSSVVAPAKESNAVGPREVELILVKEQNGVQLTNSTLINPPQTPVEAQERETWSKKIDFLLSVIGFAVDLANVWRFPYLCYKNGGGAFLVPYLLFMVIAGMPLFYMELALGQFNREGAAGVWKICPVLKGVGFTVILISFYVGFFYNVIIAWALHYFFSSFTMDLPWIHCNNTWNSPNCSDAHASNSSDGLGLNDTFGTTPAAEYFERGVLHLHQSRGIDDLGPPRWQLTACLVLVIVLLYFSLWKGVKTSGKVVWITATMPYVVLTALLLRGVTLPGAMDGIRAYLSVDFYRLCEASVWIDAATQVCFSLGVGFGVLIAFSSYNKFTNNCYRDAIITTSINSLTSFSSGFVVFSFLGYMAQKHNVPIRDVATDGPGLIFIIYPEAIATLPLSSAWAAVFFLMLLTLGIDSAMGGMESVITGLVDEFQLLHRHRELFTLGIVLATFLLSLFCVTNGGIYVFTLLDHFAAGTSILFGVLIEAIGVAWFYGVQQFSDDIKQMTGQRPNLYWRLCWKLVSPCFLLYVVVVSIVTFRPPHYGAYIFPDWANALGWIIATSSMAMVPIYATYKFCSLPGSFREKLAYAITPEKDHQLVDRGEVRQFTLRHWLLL

Transporter = Transporter (Rattus norvegicus, UniProt Q63380); test: Inhibition of [3H]norepinephrine uptake at NET expressed in rat hypothalamic homogenate containing synaptosomes after 5 mins by scintillation counting analysis; format: subcellular, Brain
Chain of Transporter (Q63380 whole entry): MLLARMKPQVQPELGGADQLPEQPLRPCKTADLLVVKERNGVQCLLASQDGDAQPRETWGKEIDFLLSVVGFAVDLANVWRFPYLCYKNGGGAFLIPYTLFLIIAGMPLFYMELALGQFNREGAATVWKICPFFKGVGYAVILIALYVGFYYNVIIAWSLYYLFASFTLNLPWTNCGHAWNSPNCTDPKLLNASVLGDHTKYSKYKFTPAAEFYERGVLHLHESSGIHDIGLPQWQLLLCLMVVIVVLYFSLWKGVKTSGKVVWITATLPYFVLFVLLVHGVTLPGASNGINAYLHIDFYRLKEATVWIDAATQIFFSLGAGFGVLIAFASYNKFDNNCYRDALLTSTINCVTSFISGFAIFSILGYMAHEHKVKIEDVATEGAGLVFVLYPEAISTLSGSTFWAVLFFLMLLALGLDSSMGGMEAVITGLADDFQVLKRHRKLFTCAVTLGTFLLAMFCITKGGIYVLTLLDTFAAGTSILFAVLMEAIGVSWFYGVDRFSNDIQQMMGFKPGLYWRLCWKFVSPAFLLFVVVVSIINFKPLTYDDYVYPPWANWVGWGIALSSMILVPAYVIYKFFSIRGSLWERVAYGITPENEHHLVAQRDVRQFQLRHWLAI

[2] = target: Sodium-dependent dopamine transporter (Rattus norvegicus, UniProt P23977); test: Inhibition of [3H]dopamine uptake at dopamine transporter expressed in rat striatal homogenate after 5 mins by scintillation counting analysis
Chain of Sodium-dependent dopamine transporter (P23977 whole entry): as the sequence (P23977 whole entry) above

Compound | fold change (FC) (Rattus norvegicus) | fold change (FC) [1] | IC50 (Transporter) | IC50 [2]
NC1C[C@@H]2CCCC[C@H]2CC1(O)c1ccc(O)c(O)c1 (mixture of isomers; form 4) | 2 | 5.7 |  | 
NC1C[C@@H]2CCCC[C@H]2CC1(O)c1ccc(O)c(O)c1 (mixture of isomers; form 2) | 8.9 | 50 |  | 
NC1C[C@@H]2CCCC[C@H]2CC1c1ccccc1 (mixture of isomers; 1) [listing 1 of 2 here] | 30 | 25 |  | 
NC1C[C@@H]2CCCC[C@H]2CC1(O)c1ccc(O)c(O)c1 (mixture of isomers; form 3) | 0.03 | 1.1 |  | 
NC1C[C@@H]2CCCC[C@H]2CC1c1ccccc1 (mixture of isomers; 1) [listing 2 of 2 here] |  |  | 0.66 µM | 3.8 µM
NC[C@H](O)c1ccc(O)c(O)c1 | 100 | 100 |  | 
NC1C[C@@H]2CCCC[C@H]2CC1c1ccccc1 (mixture of isomers; 4) [listing 1 of 2 here] |  |  | 5.5 µM | 7 µM
NC1C[C@@H]2CCCC[C@H]2CC1c1ccccc1 (mixture of isomers; 3) [listing 1 of 2 here] | 2.2 | 4.8 |  | 
NC1C[C@@H]2CCCC[C@H]2CC1c1ccccc1 (mixture of isomers; 4) [listing 2 of 2 here] | 3.6 | 14 |  | 
NC1C[C@@H]2CCCC[C@H]2CC1c1ccccc1 (mixture of isomers; 3) [listing 2 of 2 here] |  |  | 9 µM | 20 µM
NC1C[C@@H]2CCCC[C@H]2CC1c1ccccc1 (mixture of isomers; 2) [listing 1 of 2 here] |  |  | 18 µM | 12 µM
NC1C[C@@H]2CCCC[C@H]2CC1(O)c1ccc(O)c(O)c1 (mixture of isomers; form 1) | 4.4 | 2.3 |  | 
NC1C[C@@H]2CCCC[C@H]2CC1c1ccccc1 (mixture of isomers; 2) [listing 2 of 2 here] | 1.1 | 8 |  | 
